Structures can show the parent of a compound that is named as a salt.

This assay deals with T1, Recombinant human IKKβ (residues 1-737) (Homo sapiens, UniProt O14920).
T1 construct: Recombinant human IKKβ (residues 1-737); GST (C); made in house
T1 sequence (O14920 1-737): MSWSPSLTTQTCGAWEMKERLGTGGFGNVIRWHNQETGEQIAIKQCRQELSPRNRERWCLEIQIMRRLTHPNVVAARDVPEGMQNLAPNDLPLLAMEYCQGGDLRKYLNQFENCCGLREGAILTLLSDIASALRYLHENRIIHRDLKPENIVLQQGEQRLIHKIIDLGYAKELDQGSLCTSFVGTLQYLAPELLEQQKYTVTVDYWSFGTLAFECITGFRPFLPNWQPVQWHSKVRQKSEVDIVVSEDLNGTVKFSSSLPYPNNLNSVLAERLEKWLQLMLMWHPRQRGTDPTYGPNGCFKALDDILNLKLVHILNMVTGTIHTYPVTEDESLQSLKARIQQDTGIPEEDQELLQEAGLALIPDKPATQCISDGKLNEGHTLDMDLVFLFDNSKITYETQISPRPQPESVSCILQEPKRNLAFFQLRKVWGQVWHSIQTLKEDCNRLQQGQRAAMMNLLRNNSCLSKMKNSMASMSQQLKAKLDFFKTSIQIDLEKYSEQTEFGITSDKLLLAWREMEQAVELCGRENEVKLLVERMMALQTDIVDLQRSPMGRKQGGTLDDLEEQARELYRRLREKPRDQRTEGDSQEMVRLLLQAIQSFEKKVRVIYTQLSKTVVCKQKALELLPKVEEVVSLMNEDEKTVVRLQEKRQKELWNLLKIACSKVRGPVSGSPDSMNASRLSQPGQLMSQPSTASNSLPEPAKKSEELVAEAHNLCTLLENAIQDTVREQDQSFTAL
Put plainly: IKK2 assay (TR-FRET). The following applies: ATP 1 μM final, read-out: pIC50 against IKK2 (converted). It is filed as biochemical. As for the experimental part:
Recombinant human IKKβ (residues 1-737) was expressed in baculovirus as a C-terminal GST-tagged fusion protein, and its activity was assessed using a time-resolved fluorescence resonance energy transfer (TR-FRET) assay. Briefly, IKK2 (0.5 nM-5 nM final) diluted in assay buffer (50 mM HEPES, 10 mM MgCl2, 1 mM CHAPS pH 7.4 with 1 mM DTT and 0.01% w/v BSA) was added to wells containing various concentrations of compound or DMSO vehicle (1.7% final). The reaction was initiated by the addition of GST-IB substrate (25 nM final)/ATP (1 μM final), in a total volume of 6 μl. The reaction was incubated for 15 minutes at room temperature, then terminated by the addition of 3 μl of detection reagent in buffer containing 50 mM EDTA (100 mM HEPES pH 7.4, 150 mM NaCl, 50 mM EDTA and 0.01% w/v BSA) containing antiphosphoserine-IB-32/36 monoclonal antibody 12C2 (Cell Signalling Technology, Beverly Mass., USA) labelled with W-1024 europium chelate (Wallac OY, Turku, Finland), and an APC-labelled anti-GST antibody (Prozyme, San Leandro, Calif., USA) was added and the reaction was further incubated for 60 minutes at room temperature. The degree of phosphorylation of GST-IB was measured using a BMG Rubystar plate reader (BMG Labtech, Aylesbury, UK) as a ratio of specific 665 nm energy transfer signal to reference europium 620 nm signal.
(In general: In TR-FRET formats the signal depends on donor and acceptor labels being close together.)

`CCCNCc1cc(F)cc(-c2cc(C(N)=O)c3[nH]cc(C4CCN(S(=O)(=O)CC)CC4)c3c2)c1` [Example 284, 3-[1-(ethylsulfonyl)-4-piperidinyl]-5-{3-fluoro-5-[(propylamino)methyl]phenyl}-1H-indole-7-carboxamide trifluoroacetate]: the IC50 was at most 10 µM.
`CCS(=O)(=O)N1CCC(c2c[nH]c3c(C(N)=O)cc(-c4cc(F)cc(CNC(C)C)c4)cc23)CC1` [Example 285, 3-[1-(ethylsulfonyl)-4-piperidinyl]-5-(3-fluoro-5-{[(1-methylethyl)amino]methyl}phenyl)-1H-indole-7-carboxamide trifluoroacetate]: the IC50 is at most 10 µM.
With `CCS(=O)(=O)N1CCC(c2c[nH]c3c(C(N)=O)cc(-c4cc(F)cc(CNCC(C)C)c4)cc23)CC1` [Example 286, 3-[1-(ethylsulfonyl)-4-piperidinyl]-5-(3-fluoro-5-{[(2-methylpropyl)amino]methyl}phenyl)-1H-indole-7-carboxamide trifluoroacetate] the figure was at most 10 µM; with `CCS(=O)(=O)N1CCC(c2c[nH]c3c(C(N)=O)cc(-c4cc(F)cc(CNC5CCC5)c4)cc23)CC1` [Example 287, 5-{3-[(cyclobutylamino)methyl]-5-fluorophenyl}-3-[1-(ethylsulfonyl)-4-piperidinyl]-1H-indole-7-carboxamide trifluoroacetate], at most 10 µM; with `CCS(=O)(=O)N1CCC(c2c[nH]c3c(C(N)=O)cc(-c4cc(F)cc(CN(C)C)c4)cc23)CC1` [Example 288, 5-{3-[(dimethylamino)methyl]-5-fluorophenyl}-3-[1-(ethylsulfonyl)-4-piperidinyl]-1H-indole-7-carboxamide trifluoroacetate], at most 10 µM.
With `CCS(=O)(=O)N1CCC(c2c[nH]c3c(C(N)=O)cc(-c4cc(F)cc(CN5CCCC5)c4)cc23)CC1` [Example 289, 3-[1-(ethylsulfonyl)-4-piperidinyl]-5-[3-fluoro-5-(1-pyrrolidinylmethyl)phenyl]-1H-indole-7-carboxamide trifluoroacetate] the figure was at most 10 µM; with `CCS(=O)(=O)N1CCC(c2c[nH]c3c(C(N)=O)cc(-c4cc(F)cc(CN5CCOCC5)c4)cc23)CC1` [Example 290, 3-[1-(ethylsulfonyl)-4-piperidinyl]-5-[3-fluoro-5-(4-morpholinylmethyl)phenyl]-1H-indole-7-carboxamide trifluoroacetate], at most 10 µM; with `CCS(=O)(=O)N1CCC(c2c[nH]c3c(C(N)=O)cc(-c4cc(F)cc(CN5CCCCC5)c4)cc23)CC1` [Example 291, 3-[1-(ethylsulfonyl)-4-piperidinyl]-5-[3-fluoro-5-(1-piperidinylmethyl)phenyl]-1H-indole-7-carboxamide trifluoroacetate], at most 10 µM.
With `CCS(=O)(=O)N1CCC(c2c[nH]c3c(C(N)=O)cc(-c4csc(CN5CCCCC5)n4)cc23)CC1` [Example 354, 3-[1-(ethylsulfonyl)-4-piperidinyl]-5-[2-(1-piperidinylmethyl)-1,3-thiazol-4-yl]-1H-indole-7-carboxamide] the figure was at most 10 µM; with `CCS(=O)(=O)N1CCC(c2c[nH]c3c(C(N)=O)cc(-c4cccc(CNS(=O)(=O)c5csc6ccccc56)c4)cc23)CC1` [Example 382, 5-(3-{[(1-benzothien-3-ylsulfonyl)amino]methyl}phenyl)-3-[1-(ethylsulfonyl)-4-piperidinyl]-1H-indole-7-carboxamide], at most 10 µM; with `CCS(=O)(=O)N1CCC(c2c[nH]c3c(C(N)=O)cc(-c4cccc(CNS(=O)(=O)c5ccc(F)c(F)c5)c4)cc23)CC1` [Example 384, 5-[3-({[(3,4-difluorophenyl)sulfonyl]amino}methyl)phenyl]-3-[1-(ethylsulfonyl)-4-piperidinyl]-1H-indole-7-carboxamide], at most 10 µM.
As to `CCS(=O)(=O)N1CCC(c2c[nH]c3c(C(N)=O)cc(-c4ccc(NS(=O)(=O)C5CCCC5)cc4)cc23)CC1` [Example 387, 5-{4-[(cyclopentylsulfonyl)amino]phenyl}-3-[1-(ethylsulfonyl)-4-piperidinyl]-1H-indole-7-carboxamide trifluoroacetate], the IC50 was at most 10 µM.
With `CCS(=O)(=O)N1CCC(c2c[nH]c3c(C(N)=O)cc(-c4cccc(CNOC)c4)cc23)CC1` [Example 391, 3-[1-(ethylsulfonyl)-4-piperidinyl]-5-(3-{[(methyloxy)amino]methyl}phenyl)-1H-indole-7-carboxamide] the figure was at most 10 µM.
The figure for `CC(C)S(=O)(=O)N1CCC(c2c[nH]c3c(C(N)=O)cc(-c4csc(CN(C)CC(N)=O)c4)cc23)CC1` [Example 398, 5-(5-{[(2-amino-2-oxoethyl)(methyl)amino]methyl}-3-thienyl)-3-{1-[(1-methylethyl)sulfonyl]-4-piperidinyl}-1H-indole-7-carboxamide] is at most 10 µM.
With `CCS(=O)(=O)N1CCC(c2c[nH]c3c(C(N)=O)cc(-c4csc(CN5CCCC5COC)c4)cc23)CC1` (stereo not shown) [Example 405, 3-[1-(ethylsulfonyl)-4-piperidinyl]-5-[5-({2-[(methyloxy)methyl]-1-pyrrolidinyl}methyl)-3-thienyl]-1H-indole-7-carboxamide trifluoroacetate] the figure was at most 10 µM; with `CCS(=O)(=O)N1CCC(c2c[nH]c3c(C(N)=O)cc(-c4csc(CN5CCCC(C(F)(F)F)C5)c4)cc23)CC1` (stereo not shown) [Example 407, 3-[1-(ethylsulfonyl)-4-piperidinyl]-5-(5-{[3-(trifluoromethyl)-1-piperidinyl]methyl}-3-thienyl)-1H-indole-7-carboxamide trifluoroacetate], at most 10 µM.
As for `CCS(=O)(=O)N1CCC(c2c[nH]c3c(C(N)=O)cc(-c4csc(CN(C)CCNC(C)=O)c4)cc23)CC1` [Example 410, 5-(5-{[[2-(acetylamino)ethyl](methyl)amino]methyl}-3-thienyl)-3-[1-(ethylsulfonyl)-4-piperidinyl]-1H-indole-7-carboxamide trifluoroacetate], the IC50 was at most 10 µM.
With `CCS(=O)(=O)N1CCC(c2c[nH]c3c(C(N)=O)cc(-c4csc(CN(C)[C@@H]5CCC[C@H]5O)c4)cc23)CC1` [Example 411, 3-[1-(ethylsulfonyl)-4-piperidinyl]-5-(5-{[[(1R,2R)-2-hydroxycyclopentyl](methyl)amino]methyl}-3-thienyl)-1H-indole-7-carboxamide trifluoroacetate] the figure was at most 10 µM; with `CCS(=O)(=O)N1CCC(c2c[nH]c3c(C(N)=O)cc(-c4csc(CN(C)C[C@H](C)O)c4)cc23)CC1` [Example 413, 3-[1-(ethylsulfonyl)-4-piperidinyl]-5-(5-{[[(2S)-2-hydroxypropyl](methyl)amino]methyl}-3-thienyl)-1H-indole-7-carboxamide trifluoroacetate], at most 10 µM; with `CCS(=O)(=O)N1CCC(c2c[nH]c3c(C(N)=O)cc(-c4csc(CN(C)C[C@H]5CCCO5)c4)cc23)CC1` [Example 414, 3-[1-(ethylsulfonyl)-4-piperidinyl]-5-[5-({methyl[(2R)-tetrahydro-2-furanylmethyl]amino}methyl)-3-thienyl]-1H-indole-7-carboxamide trifluoroacetate], at most 10 µM.
The figure for `CCS(=O)(=O)N1CCC(c2c[nH]c3c(C(N)=O)cc(-c4csc(CN(C)CCOCCO)c4)cc23)CC1` [Example 415, 3-[1-(ethylsulfonyl)-4-piperidinyl]-5-(5-{[{2-[(2-hydroxyethyl)oxy]ethyl}(methyl)amino]methyl}-3-thienyl)-1H-indole-7-carboxamide trifluoroacetate] is at most 10 µM; for `CCS(=O)(=O)N1CCC(c2c[nH]c3c(C(N)=O)cc(-c4ccc5c(c4)CN(C(C)C(C)C)C5)cc23)CC1` (stereo not shown) [Example 421, 5-[2-(1,2-dimethylpropyl)-2,3-dihydro-1H-isoindol-5-yl]-3-[1-(ethylsulfonyl)-4-piperidinyl]-1H-indole-7-carboxamide] it is at most 10 µM.
